{"source": "patent US7847064B2", "about": "“Methods and compositions for regulating gene expression in plant cells” (Donald Danforth Plant Science Center, priority 2004, dated 2010)", "type_in_all_cases": "in vivo, Arabidopsis thaliana", "key": {"[1]": {"tested_on": "VGE receptor", "assay": "Induction of RF2a expression in transgenic Arabidopsis (Western Blot)", "conditions": "1:8000 dilution of Intrepid 2F; plants with E:GUS, 5G35Sm:RF2a, Cs:VGE", "text": "Induction of RF2a expression—RF2a expression was induced in the transgenic Arabidopsis plants described herein by application of a 1:8000 dilution of the pesticide Intrepid® 2F (Dow AgroSciences, Indianapolis, Ind.). The active ingredient in Intrepid® 2F pesticide is methoxyfenozide. […] Accordingly, the methoxyfenozide compound served as an expression-inducing ligand, which functioned to enhance expression of the RF2a-encoding sequence. Upon application of the methoxyfenozide compound, RF2a expression was induced, thereby allowing RF2a to interact with the Box II-containing E fragment, which was operably linked to the uidA sequence.\nWestern Blot analysis—To detect the expression of RF2a in select transgenic lines described above, either treated or untreated with Intrepid® 2F, 40 μg of protein of each sample was separated by 12% SDS-PAGE and blotted onto nitrocellulose membrane. The Arabidopsis lines analyzed by Western Blot included EGaV50, EGaV59, EGaV63, EGaV70, EGaV72, and E:GUS. Rabbit anti-RF2a antibodies were first applied to the nitrocellulose membrane, incubated, and washed. Next, anti-rabbit horseradish peroxidase-conjugated secondary antibodies were applied to the membrane, incubated, and washed. Finally, SuperSignal substrate (Pierce, Rockford, Ill.) was applied to the membrane, incubated, and washed."}, "[2]": {"tested_on": "VGE receptor", "assay": "Histochemical GUS staining of treated leaves of T1 transgenic Arabidopsis", "conditions": "67 T1 plants, 1:8000 dilution of Intrepid 2F on one leaf, two days, X-Gluc", "description": "Analysis of GUS activity—The relative GUS activity in the transgenic Arabidopsis plants described herein was measured by histochemical analysis. In each of sixty-seven (67) T1 transgenic Arabidopsis plants carrying E:GUS, 5G35Sm:RF2a and Cs:VGE, the 1:8000 dilution of Intrepid® 2F described above was applied to one true leaf, while the other leaves in each plant remained untreated. Two-days following the application of the expression-inducing ligand, the treated leaf together with one untreated leaf from the same plant were detached and subjected to GUS staining.\nMore particularly, the plant leaf tissues mentioned above were submerged in stain solution containing 1 mM of X-Gluc in 100 mM sodium phosphate buffer (pH 7.0), 2 mM K3Fe(CN)6, 2 mM K4Fe(CN)6, 0.1% Triton X-100 and 20% methanol (Petruccelli et al. 2001). In order to evaluate GUS activity, several substrates are available. The most commonly used are 5-bromo-4-chloro-3-indolyl glucuronide (X-Gluc) and 4-methyl-umbelliferyl-glucuronide (MUG). […] For quantification purposes, MUG is preferred, because the umbelliferyl radical emits fluorescence under UV stimulation, thus providing better sensitivity and easy measurement by fluorometry. […]"}, "[3]": {"tested_on": "VGE receptor", "assay": "Quantitative GUS activity (MUG) in T2 transgenic Arabidopsis", "conditions": "twelve T2 lines, 1:8000 dilution of Intrepid 2F in hydroponic solution, three days", "description": "Quantitative analysis of GUS activity in methoxyfenozide-treated plants was then conducted. T2 generation transgenic Arabidopsis plants from twelve T1 primary lines were selected on hygromycin selection medium. The lines are individually referred to herein as EGaV-3, EGaV-5, EGaV-17, EGaV-31, EGaV-50, EGaV-51, EGaV-56, EGaV-59, EGaV-63, EGaV-70, EGaV-72, and E:GUS. For each primary line, eighteen 14-day-old T2 plants were used. Nine plants, in three groups, were cultured in MS hydroponic solution containing a 1:8000 dilution of Intrepid 2F®. The remaining nine plants, in three groups, were left untreated and served as controls. After a three-day treatment period, the GUS activity in leaf tissue samples from each plant was quantified.\nEach sample of leaf tissue was ground to a powder in liquid nitrogen. Total protein was extracted from each sample by adding 300 μl of extraction buffer. Protein concentration of each sample was quantified using a Dc Protein Assay Kit (Bio-Rad Laboratories, Hercules, Calif.). GUS activity of each sample was quantified using MUG as substrate and a fluorescence spectrometer (Molecular Devices, Sunnyvale, Calif.) (Petruccelli et al., 2001)."}}, "note": "“Also recorded” adds a separate entry of the source."}
{"smiles": "COc1cccc(C(=O)NN(C(=O)c2cc(C)cc(C)c2)C(C)(C)C)c1C", "note": "[methoxyfenozide]", "values": [{"measurement": "RF2a expression", "setting": "[1]", "value": "enhance RF2a expression; also recorded: presence of RF2a"}, {"measurement": "plants with constitutive GUS expression pattern in treated leaves", "setting": "[2]", "value": "approximately 70%"}, {"measurement": "induction of GUS expression in relation to untreated control plants, average", "setting": "[3]", "value": 2.1, "unit": "fold"}]}
